# From patent US10500178B2, “LTB4 inhibition to prevent and treat human lymphedema” (The Board of Trustees of the Leland Stanford Junior …, priority 2015, dated 2019)
# Legend:
# secondary leg lymphedema = assay: study of ubenimex in patients with secondary leg lymphedema; type: in vivo, human; conditions: oral 150 mg three times daily, 6-month treatment period
# Protocol: A study is conducted for treatment of patients with acquired lymphedema of the lower extremities with ubenimex. In this study, ubenimex is evaluated over a 6-month treatment period to determine the effect on dermal thickness and other efficacy measures in patients with secondary leg lymphedema. The efficacy, safety and tolerability of ubenimex in this patient population is characterized. Adult male and female subjects are enrolled with a confirmed diagnosis of Stage II or greater secondary leg lymphedema, based on a positive lymphoscintigraphy (LSG) study of the affected leg. At least 20 individuals are enrolled in each of the treatment and placebo arm of the trial. Individuals are given oral 150 mg ubenimex three times daily for a total daily dose of 450 mg. The drug and placebo are provided in a capsule form. Efficacy assessments include skin thickness (as measured by skinfold calipers), leg volume (as measured by standardized tape measure), bioimpedance (as measured by the […]) to measure 4-limb bioimpedance to determine extracellular fluid volume), and skin biopsy results (as measured by 6-mm skin punch biopsy samples to assess skin thickness and architecture (e.g., presence of hyperkeratosis, dermal collagen, and adipose deposition).
# [1] = system: acquired lymphedema surgically induced in the tails of female C57BL/6J mice; assay: mouse-tail model of acquired lymphedema (tail volume, histology); type: in vivo
# Protocol: Surgical induction of experimental lymphatic vascular insufficiency. […] Briefly, a full-thickness circumferential incision of the skin was made 16 mm distal to the base of the mouse tail under anesthesia. Lymphatic trunks were ablated through controlled, limited cautery application under the surgical microscope. For surgical controls (sham animals), the skin incision alone was performed without lymphatic cautery.
# (§1) All small molecule drugs were administered through daily intraperitoneal injection.
# Tail volume quantitation. Tail-volume measurements at each designated time were quantified by observers blinded to the treatment status of the subjects. Tail volumes were calculated through a digital photographic technique pre-operatively, and post-operatively (d3, d9, d14, d20, and d24), using an Olympus D520 Zoom digital camera at SHQ resolution at a fixed distance from the subject (37 cm), as previously described. Tail volumes were derived from the measurement of the tail diameter using the truncated cone approximation. Microlymphangiography was performed by injecting FITC-dextran (size: 2000 kDa) subcutaneously into mouse tails on post-surgery d24. Images were taken 20 minutes after injection.
# Viral particles were mixed with Lipofectamine 2,000 (5% final vol/vol, Invitrogen) before injection, to increase transduction efficiency. qRT-PCR, immunofluorescence and fluorescence in situ hybridization were used to evaluate the silencing efficiency in the mouse tail skin 24d after surgery.
# LEC S1pr1−/− mice = assay: lymphedema surgery in LEC S1pr1-/- mice; type: in vivo, mouse
# Source text: To generate lymphatic endothelial specific tdTomato reporter mice (Prox1-Cre-ER-tdTomato), Prox1-Cre-ER mice were crossed with tdTomato mice. To create lymphatic endothelial cell specific Notch1 or S1pr1 conditional knockouts, Prox1-Cre-ER mice were crossed with Notch1loxp/loxp or S1pr1loxp/loxp mice. Mice with Prox1-Cre-ER and both target alleles floxed by Prox1-Cre-ER/Notch1^loxp/loxp or Prox1-Cre-ER/S1pr1^loxp/loxp were considered to be either lymphatic endothelial cell-specific Notch1 knockout (LEC Notch1−/−) or S1pr1 knockout (LEC S1pr1^−/−), respectively. Mice expressing Prox1-Cre-ER were used as WT controls. […] Cre-mediated gene knockout efficiency was evaluated by enumerating Notch1- or S1PR1-expressing lymphatic endothelial cells or by qRT-PCR measurements of Notch1 or S1pr1 transcripts in the lymphatic endothelial cells, sorted by flow cytometry. […]
# Tail volume quantitation. Tail-volume measurements at each designated time were quantified by observers blinded to the treatment status of the subjects. Tail volumes were calculated through a digital photographic technique pre-operatively, and post-operatively (d3, d9, d14, d20, and d24), using an Olympus D520 Zoom digital camera at SHQ resolution at a fixed distance from the subject (37 cm), as previously described. […]
# LTB4 = assay: serum LTB4 levels in lymphedema mice; type: in vivo, mouse; conditions: therapies initiated on d3, assessed on d24
# Protocol: as §1
# Quantification of LTB4, PGE2 and S1P with LC-MS/MS. Briefly, LTB4, PGE2 and S1P were separated from serum with an ACE reverse phase C18 HPLC column. Formic acid 0.5% in 5 mM NH4Ac (A) and formic acid 0.5% in acetonitrile/water (9/1) (B) were used as the mobile phase. […] The internal standard of this method was Carbutamide. The quantification limit was 1 ng/ml. The calibration range was 1-2000 ng/ml.
smiles,measurement,setting,value
"CC(C)C[C@H](NC(=O)[C@@H](O)[C@H](N)Cc1ccccc1)C(=O)O [bestatin, (2S)-2-[[(2S,3R)-3-amino-2-hydroxy-4-phenylbutanoyl]amino]-4-methylpentanoic acid]",difference between ubenimex and placebo treatment arms by clinical indicia,secondary leg lymphedema,statistically significant difference
same,benefit of LTB4 antagonism administered prior to surgery,"[1]; therapies administered prior to sham and lymphedema surgery (bestatin, Ly293111 from d0, shLtb4r1 on d(−7))",not beneficial
same,amelioration of lymphedema (serial tail-volume measurements over 24d),[1]; therapies started on post-surgery d3 (late LTB4 antagonism),demonstrated therapeutic amelioration of lymphedema
same,reversal of more established disease by delayed dosing,[1]; therapy initiated 9d or 14d post-surgically,effective
same,lymphatic Sphk1 and eNOS expression after treatment,LEC S1pr1−/− mice,remaining low
same,"reversal of lymphedema (tail volume, dermal thickness, lymphatic dilation)",LEC S1pr1−/− mice,failed to reverse lymphedema
same,serum LTB4 levels,LTB4,effectively reduced
